The target of one data set is GPR56/AGRG1 (Homo sapiens, UniProt Q9Y653). Briefly: GPR56 PRESTO-Tango. Particulars: titrating doses of pure amino acid.
Data set [1] deals with colon motility. The data set can be described thus: Intestinal motility by fecal output. The format is in vivo, C57Bl/6 mice. Particulars: M. morganii colonized mice, 1% L-His in water for 2 weeks.
Data set [2] addresses GPR56-ANT (a mutant lacking the extracellular domain) (Homo sapiens, UniProt Q9Y653). The data set can be described thus: PRESTO-Tango on GPR56 truncation mutant. Particulars: titrating doses of L-Phe.
A further data set addresses GPR97/AGRG3 (Homo sapiens, UniProt Q86Y34). The data set can be described thus: GPR97 PRESTO-Tango. Particulars: titrating doses of pure amino acid.
For data set [3], the target named is T1, DRD2 (Homo sapiens, UniProt P14416). The data set can be described thus: DRD2 PRESTO-Tango. The format is cell-based. Particulars: pure ligand.
T1 sequence (P14416 whole entry): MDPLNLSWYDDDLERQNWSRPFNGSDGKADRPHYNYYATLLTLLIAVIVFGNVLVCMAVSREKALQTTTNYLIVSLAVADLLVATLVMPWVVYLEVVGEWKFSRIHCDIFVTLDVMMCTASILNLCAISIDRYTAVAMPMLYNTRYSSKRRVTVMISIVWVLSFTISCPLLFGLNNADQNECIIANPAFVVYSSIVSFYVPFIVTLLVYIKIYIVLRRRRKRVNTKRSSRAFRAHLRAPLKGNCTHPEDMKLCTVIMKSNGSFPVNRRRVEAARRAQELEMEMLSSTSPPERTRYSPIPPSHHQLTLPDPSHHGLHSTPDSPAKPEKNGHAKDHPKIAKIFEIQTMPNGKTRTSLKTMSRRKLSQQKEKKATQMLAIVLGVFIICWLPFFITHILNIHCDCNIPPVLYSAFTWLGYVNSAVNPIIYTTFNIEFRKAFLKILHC
Data set [4] relates to colon motility. Particulars: rodents; cited from earlier work.
The target of data set [5] is T1, DRD2. Particulars: for phenethylamine as measured by DRD2 activation by cecal and colonic extracts: L-Phe deficient diet, MAOI.
The conditions of data set [6]: in vivo; cited from earlier work.
For the next data set, the target named is DRD3 (Homo sapiens, UniProt P35462). Briefly: DRD3 PRESTO-Tango. The data set is classed as cell-based. Particulars: pure ligand.
Sequence of DRD3 (P35462 whole entry): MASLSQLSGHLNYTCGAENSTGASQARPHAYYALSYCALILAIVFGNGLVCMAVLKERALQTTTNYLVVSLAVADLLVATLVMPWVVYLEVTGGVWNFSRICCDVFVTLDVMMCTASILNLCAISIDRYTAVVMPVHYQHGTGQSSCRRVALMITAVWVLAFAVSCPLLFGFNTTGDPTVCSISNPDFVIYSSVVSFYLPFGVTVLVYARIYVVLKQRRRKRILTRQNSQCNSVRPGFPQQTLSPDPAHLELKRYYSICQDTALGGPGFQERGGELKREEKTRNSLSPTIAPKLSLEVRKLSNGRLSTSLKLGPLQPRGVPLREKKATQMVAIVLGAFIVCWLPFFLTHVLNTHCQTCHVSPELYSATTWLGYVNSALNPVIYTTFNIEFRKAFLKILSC
A further data set addresses T2, DRD4 (Homo sapiens, UniProt P21917).
T2 sequence (P21917 1-419): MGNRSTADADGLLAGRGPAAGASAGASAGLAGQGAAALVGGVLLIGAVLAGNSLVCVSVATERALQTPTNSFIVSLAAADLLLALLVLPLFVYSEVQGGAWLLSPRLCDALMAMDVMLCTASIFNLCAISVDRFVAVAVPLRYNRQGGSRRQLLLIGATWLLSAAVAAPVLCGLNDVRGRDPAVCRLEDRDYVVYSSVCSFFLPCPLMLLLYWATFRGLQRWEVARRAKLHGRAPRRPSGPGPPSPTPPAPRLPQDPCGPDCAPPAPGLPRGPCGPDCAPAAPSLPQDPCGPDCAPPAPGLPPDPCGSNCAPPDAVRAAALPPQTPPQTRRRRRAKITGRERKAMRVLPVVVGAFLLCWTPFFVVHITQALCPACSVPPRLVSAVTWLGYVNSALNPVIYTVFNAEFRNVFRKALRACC
The data set can be described thus: DRD4 PRESTO-Tango. Particulars: pure ligand. The format is cell-based.

The structures appear in SMILES notation. Like-named read-outs stand apart in the source and are kept apart here. Bounds are passed on as bounds.

Sequence of GPR56/AGRG1 (Q9Y653 26-693): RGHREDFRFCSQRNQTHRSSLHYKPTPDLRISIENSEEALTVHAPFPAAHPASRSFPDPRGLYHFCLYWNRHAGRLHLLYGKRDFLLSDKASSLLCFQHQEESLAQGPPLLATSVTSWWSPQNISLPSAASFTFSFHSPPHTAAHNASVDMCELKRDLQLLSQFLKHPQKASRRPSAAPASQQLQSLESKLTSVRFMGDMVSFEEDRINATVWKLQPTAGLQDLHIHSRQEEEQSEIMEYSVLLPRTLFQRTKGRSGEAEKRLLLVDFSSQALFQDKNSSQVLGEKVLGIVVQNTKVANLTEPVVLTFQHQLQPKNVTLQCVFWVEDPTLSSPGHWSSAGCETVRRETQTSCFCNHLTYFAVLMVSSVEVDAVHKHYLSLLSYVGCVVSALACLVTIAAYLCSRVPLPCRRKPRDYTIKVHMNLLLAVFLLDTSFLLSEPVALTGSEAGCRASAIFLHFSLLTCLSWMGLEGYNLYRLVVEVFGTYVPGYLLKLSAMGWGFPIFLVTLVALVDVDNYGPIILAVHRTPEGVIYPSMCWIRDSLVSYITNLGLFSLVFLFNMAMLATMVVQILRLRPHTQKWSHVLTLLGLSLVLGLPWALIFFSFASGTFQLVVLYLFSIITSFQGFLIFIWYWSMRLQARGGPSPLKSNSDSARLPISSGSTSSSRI
Sequence of GPR56-ANT (a mutant lacking the extracellular domain) (Q9Y653 383-693 limits assumed, change not shown): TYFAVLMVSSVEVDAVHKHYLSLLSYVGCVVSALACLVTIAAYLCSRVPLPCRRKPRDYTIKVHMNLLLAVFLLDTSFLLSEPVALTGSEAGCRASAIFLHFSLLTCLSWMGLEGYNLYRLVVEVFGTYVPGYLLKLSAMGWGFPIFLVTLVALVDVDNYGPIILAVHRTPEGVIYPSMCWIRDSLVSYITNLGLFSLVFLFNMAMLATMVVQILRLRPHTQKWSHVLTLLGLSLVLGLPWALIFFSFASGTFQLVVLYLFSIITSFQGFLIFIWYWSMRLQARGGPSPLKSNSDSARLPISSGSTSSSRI
Sequence of GPR97/AGRG3 (Q86Y34 21-549): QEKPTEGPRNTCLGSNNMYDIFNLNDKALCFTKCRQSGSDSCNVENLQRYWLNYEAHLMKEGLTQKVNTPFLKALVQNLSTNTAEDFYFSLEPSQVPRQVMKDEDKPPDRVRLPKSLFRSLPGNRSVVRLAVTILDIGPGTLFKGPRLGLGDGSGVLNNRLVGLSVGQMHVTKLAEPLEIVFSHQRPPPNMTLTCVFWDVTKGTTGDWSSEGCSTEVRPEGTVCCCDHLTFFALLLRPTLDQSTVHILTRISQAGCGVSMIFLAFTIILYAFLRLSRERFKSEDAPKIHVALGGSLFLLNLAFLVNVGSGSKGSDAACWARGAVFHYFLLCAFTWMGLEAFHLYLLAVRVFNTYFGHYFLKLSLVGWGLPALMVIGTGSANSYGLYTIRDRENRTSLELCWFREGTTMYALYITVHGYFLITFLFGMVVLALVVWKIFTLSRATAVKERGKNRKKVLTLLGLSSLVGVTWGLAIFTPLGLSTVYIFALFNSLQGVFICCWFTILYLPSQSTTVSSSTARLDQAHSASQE

With `N[C@H](Cc1c[nH]cn1)C(=O)O` [D-His], the “activation of GPR56/AGRG1” value at GPR56/AGRG1 is on record as “no activity”.

For `N[C@H](Cc1ccccc1)C(=O)O` [D-Phe], the “activation of GPR56/AGRG1” value on GPR56/AGRG1 is recorded as “no activity”.

As for `N[C@H](Cc1c[nH]c2ccccc12)C(=O)O` [D-Trp], the “activation of GPR56/AGRG1” value on GPR56/AGRG1 is on record as “no activity”.

Turning to `N[C@H](Cc1ccc(O)cc1)C(=O)O` [D-Tyr], the “activation of GPR56/AGRG1” value on GPR56/AGRG1 is “no activity”.

For `N[C@@H](Cc1c[nH]cn1)C(=O)O` [L-His, L-histidine], in the data set on colon motility [1], the “fecal output upon supplementation with L-His” value was “further increased”. In addition, the “activation of GPR56/AGRG1” value on GPR56/AGRG1 is given as “no activity”.

Take `N[C@@H](Cc1ccccc1)C(=O)O` [L-Phe, L-phenylalanine]: the “response of GPR56/AGRG1 truncation mutant lacking the extracellular domain” value in data set [2] was “failed to respond”. Besides, the “activation of GPR97/AGRG3” value at GPR97/AGRG3 is recorded as “activated”. Also, on GPR56/AGRG1, the “activation of GPR56/AGRG1” value is on record as “stereoselectively activated”.

As for `N[C@@H](Cc1c[nH]c2ccccc12)C(=O)O` [L-Trp, L-tryptophan], the “activation of GPR56/AGRG1” value on GPR56/AGRG1 is “no activity”.

Regarding `NCCc1ccc(O)c(O)c1` [dopamine, Dopamine], the “activation of DRD2” value on DRD2 [3] is given as “efficiently activated”.

In the case of `NCCc1c[nH]cn1` [histamine, Histamine], in the data set on colon motility [4], the “effect of oral gavage on colon motility” value is on record as “increase colon motility”.

As for `NNCCc1ccccc1` [phenelzine], the “onset of lethargy after MAOI treatment” value (C57Bl/6, mouse, in vivo) is at most 4 days. Besides, the “mortality after treatment with MAOI” value (mice colonized with M. morganii, died before the seventh day of treatment) is recorded as “more than half”. Besides, for the setting “mouse, in vivo”, the “health after MAOI treatment” value is “remained healthy”, the “health after treatment with MAOI” value is on record as “appeared healthy” and the “morbidity after treatment with MAOI” value is on record as “lethargic within days”. The “DRD2 activation by cecal and colonic contents and serum” value at DRD2 [5] (MAOI-treated M. morganii colonized mice) is given as “activated DRD2”. Also, the “phenethylamine as measured by DRD2 activation by cecal and colonic extracts” value on DRD2 [5] (mice bi-colonized with C34 and M. morganii) is “significant levels of phenethylamine”. The “phenethylamine as measured by DRD2 activation by cecal and colonic extracts” value at DRD2 [5] (mice colonized with M. morganii alone) is reported as “minimal phenethylamine”.

Consider `NCCc1ccccc1` [phenethylamine, Phenethylamine], for which, on DRD2 [3], the “activation of DRD2” value is listed as “selective DRD2/DRD3/DRD4 agonists”. In addition, the “crossing of the blood-brain barrier” value in [6] was “can readily cross”. Moreover, the “activation of DRD3” value at DRD3 is reported as “selective DRD2/DRD3/DRD4 agonists”. Moreover, the “activation of DRD4” value on DRD4 was “selective DRD2/DRD3/DRD4 agonists”.

Regarding `NCCc1ccc(O)cc1` [tyramine, Tyramine], the “activation of DRD2” value on DRD2 [3] is “selective DRD2/DRD3/DRD4 agonists”. At DRD3, the “activation of DRD3” value is reported as “selective DRD2/DRD3/DRD4 agonists”. In addition, the “activation of DRD4” value at DRD4 is recorded as “selective DRD2/DRD3/DRD4 agonists”.

The record behind these values is patent publication US20230043198A1, “MICROBIOTA METABOLITES THAT SHAPE HOST PHYSIOLOGY” (Yale University, priority 2018, published 2023).
